# Publication PMC6757289, “Design and Characterization of SGK3-PROTAC1, an Isoform Specific SGK3 Kinase PROTAC Degrader” (ACS Chemical Biology, 2019)
# Read-outs that look alike come from different tables or passages of the source.
# Experiments:
# Assay in all cases: kinase profiling panel
# Assay type in all cases: biochemical
# [1] = target: TTBK1 (Homo sapiens, UniProt Q5TCY1); settings: read-out: % Activity Remaining
# From the text: (§1) Protein kinase profiling against a Dundee panel of 140 protein kinases was undertaken at the International Centre for Protein Kinase Profiling. The result for each kinase was presented as a mean kinase activity of the reaction taken in triplicate relative to a control sample treated with DMSO. Assay conditions and abbreviations are available at http://www.kinase-screen.mrc.ac.uk.
# [2] = target: p38 alpha MAPK (Homo sapiens, UniProt Q16539); settings: read-out: % Activity Remaining
# From the text: as §1
# [3] = target: EPH-A2 (Homo sapiens, UniProt P29317); settings: read-out: % Activity Remaining
# From the text: as §1
# [4] = target: TIE2 (Homo sapiens, UniProt Q02763); settings: read-out: % Activity Remaining
# From the text: as §1
# [5] = target: T1, IKK epsilon (Homo sapiens, UniProt Q14164); settings: read-out: % Activity Remaining
# T1 sequence (Q14164 1-716): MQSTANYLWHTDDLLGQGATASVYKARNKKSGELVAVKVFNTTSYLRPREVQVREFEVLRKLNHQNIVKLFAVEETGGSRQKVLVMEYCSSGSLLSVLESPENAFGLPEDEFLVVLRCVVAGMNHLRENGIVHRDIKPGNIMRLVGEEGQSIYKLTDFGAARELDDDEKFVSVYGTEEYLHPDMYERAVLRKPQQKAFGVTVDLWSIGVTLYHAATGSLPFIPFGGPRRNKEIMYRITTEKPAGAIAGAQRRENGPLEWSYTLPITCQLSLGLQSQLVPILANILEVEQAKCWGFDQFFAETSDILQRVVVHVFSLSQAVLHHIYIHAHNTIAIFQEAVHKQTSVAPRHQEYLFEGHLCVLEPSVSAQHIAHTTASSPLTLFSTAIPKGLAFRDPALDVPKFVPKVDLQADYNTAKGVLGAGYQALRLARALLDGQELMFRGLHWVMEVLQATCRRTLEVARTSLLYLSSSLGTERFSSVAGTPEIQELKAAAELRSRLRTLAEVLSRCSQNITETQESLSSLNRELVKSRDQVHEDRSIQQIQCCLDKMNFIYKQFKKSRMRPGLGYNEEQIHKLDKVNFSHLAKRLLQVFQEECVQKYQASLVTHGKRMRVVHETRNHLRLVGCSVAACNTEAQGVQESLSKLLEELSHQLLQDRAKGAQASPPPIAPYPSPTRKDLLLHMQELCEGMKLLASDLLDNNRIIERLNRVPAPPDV
# From the text: as §1
# [6] = target: RIPK2 (Homo sapiens, UniProt O43353); settings: read-out: % Activity Remaining
# From the text: as §1
# [7] = target: p38 beta MAPK (Homo sapiens, UniProt Q15759); settings: read-out: % Activity Remaining
# From the text: as §1
# [8] = target: YES1 (Homo sapiens, UniProt P07947); settings: read-out: % Activity Remaining
# From the text: as §1
# [9] = target: MPSK1 (Homo sapiens, UniProt O75716); settings: read-out: % Activity Remaining
# From the text: as §1
# [10] = target: T2, EPH-B3 (Homo sapiens, UniProt P54753); settings: read-out: % Activity Remaining
# T2 sequence (P54753 34-998): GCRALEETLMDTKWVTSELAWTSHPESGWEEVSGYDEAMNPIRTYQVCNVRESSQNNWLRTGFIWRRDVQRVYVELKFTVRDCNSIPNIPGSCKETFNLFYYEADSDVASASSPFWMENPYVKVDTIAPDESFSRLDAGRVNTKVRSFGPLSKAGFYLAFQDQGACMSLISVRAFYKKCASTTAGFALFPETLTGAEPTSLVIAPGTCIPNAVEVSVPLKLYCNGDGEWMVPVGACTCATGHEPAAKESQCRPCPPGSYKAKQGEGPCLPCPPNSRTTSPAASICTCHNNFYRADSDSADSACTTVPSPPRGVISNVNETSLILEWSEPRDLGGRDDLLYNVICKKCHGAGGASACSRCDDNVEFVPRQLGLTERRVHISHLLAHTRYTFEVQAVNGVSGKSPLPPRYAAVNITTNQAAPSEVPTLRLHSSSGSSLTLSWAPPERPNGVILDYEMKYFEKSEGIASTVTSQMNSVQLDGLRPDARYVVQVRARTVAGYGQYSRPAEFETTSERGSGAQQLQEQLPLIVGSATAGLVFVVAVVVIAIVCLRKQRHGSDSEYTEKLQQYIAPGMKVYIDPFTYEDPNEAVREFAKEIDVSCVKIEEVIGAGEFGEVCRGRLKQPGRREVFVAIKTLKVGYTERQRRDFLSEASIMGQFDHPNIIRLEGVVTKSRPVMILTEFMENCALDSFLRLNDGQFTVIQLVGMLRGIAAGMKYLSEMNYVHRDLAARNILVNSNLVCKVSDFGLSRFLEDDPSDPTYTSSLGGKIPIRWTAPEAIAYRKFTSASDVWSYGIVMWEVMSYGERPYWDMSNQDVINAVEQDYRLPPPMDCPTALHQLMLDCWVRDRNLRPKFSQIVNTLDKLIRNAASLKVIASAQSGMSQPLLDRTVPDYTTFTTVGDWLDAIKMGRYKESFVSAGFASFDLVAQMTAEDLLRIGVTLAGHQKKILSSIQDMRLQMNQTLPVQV
# From the text: as §1
# [11] = target: STK33 (Homo sapiens, UniProt Q9BYT3)
# From the text: as §1
# [12] = target: CLK2 (Homo sapiens, UniProt P49760); settings: read-out: % Activity Remaining
# From the text: as §1
# [13] = target: T3, CHK1 (Homo sapiens, UniProt O14757); settings: read-out: % Activity Remaining
# T3 sequence (O14757 1-476): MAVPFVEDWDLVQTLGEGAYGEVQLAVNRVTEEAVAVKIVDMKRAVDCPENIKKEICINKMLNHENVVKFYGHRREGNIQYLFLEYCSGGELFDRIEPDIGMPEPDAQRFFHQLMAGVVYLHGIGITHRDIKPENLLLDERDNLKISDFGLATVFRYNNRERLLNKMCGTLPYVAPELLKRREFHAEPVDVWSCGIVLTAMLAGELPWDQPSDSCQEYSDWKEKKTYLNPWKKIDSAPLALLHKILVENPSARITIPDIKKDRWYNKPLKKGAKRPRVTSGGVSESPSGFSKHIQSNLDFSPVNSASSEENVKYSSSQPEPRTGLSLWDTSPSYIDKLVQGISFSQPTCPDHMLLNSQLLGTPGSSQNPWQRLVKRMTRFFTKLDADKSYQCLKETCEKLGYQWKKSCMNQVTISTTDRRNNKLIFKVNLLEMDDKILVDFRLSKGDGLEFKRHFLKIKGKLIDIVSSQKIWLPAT
# From the text: as §1
# [14] = target: EF2K (Homo sapiens, UniProt O00418); settings: read-out: % Activity Remaining
# From the text: as §1
# TIE2, sequence (Q02763 23-1124): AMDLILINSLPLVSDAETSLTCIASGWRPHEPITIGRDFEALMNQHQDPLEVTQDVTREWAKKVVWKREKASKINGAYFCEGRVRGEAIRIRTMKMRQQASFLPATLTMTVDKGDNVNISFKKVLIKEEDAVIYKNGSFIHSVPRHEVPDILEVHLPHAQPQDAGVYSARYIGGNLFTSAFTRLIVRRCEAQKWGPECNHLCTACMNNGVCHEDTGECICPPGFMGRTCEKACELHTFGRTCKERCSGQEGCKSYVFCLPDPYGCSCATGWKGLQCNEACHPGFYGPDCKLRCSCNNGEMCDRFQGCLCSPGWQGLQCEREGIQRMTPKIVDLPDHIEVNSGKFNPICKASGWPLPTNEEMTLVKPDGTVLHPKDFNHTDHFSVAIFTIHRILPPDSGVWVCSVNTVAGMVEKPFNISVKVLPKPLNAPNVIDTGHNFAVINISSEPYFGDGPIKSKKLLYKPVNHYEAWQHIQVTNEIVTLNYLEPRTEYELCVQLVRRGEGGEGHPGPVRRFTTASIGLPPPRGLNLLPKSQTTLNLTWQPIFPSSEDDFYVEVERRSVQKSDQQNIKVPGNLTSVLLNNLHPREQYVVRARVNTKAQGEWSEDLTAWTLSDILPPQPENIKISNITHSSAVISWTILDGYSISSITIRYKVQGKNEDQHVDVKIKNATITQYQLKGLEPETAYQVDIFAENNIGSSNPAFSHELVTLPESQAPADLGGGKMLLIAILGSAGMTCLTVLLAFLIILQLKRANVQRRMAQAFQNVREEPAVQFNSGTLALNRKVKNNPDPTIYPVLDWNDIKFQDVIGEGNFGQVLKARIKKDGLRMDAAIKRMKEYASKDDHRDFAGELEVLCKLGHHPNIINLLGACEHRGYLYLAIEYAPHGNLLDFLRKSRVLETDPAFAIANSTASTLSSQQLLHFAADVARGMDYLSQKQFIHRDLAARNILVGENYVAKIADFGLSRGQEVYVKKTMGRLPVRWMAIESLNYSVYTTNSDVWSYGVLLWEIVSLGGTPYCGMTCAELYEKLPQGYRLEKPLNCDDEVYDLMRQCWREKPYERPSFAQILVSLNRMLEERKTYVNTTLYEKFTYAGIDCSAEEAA
# YES1, sequence (P07947 whole entry): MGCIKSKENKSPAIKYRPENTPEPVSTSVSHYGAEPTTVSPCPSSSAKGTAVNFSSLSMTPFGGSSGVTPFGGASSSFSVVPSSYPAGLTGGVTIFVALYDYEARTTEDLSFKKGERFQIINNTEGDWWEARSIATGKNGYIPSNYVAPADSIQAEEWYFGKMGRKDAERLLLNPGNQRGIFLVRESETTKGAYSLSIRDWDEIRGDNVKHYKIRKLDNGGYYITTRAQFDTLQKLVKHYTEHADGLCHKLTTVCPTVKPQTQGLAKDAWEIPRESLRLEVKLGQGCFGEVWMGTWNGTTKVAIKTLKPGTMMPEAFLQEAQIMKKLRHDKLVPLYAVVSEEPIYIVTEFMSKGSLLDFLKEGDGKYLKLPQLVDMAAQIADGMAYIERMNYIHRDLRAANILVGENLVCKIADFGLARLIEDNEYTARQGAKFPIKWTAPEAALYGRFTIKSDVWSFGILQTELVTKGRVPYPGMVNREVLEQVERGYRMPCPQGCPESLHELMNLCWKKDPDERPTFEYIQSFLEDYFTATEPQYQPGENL
# CLK2, sequence (P49760 whole entry): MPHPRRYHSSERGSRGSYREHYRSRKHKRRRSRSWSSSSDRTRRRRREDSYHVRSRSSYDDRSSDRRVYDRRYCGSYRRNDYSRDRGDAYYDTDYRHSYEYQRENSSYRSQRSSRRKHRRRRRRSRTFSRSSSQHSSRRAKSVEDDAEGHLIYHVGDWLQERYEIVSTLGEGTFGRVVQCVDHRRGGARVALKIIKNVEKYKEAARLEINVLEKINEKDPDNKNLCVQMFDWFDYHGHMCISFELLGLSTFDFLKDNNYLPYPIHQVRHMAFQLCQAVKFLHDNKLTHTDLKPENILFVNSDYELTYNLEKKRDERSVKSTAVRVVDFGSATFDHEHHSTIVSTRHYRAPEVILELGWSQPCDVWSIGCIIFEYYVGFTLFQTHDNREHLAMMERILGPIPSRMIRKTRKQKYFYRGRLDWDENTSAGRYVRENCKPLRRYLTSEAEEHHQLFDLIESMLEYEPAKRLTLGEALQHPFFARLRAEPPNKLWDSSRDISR
# p38 alpha MAPK, sequence (Q16539 whole entry): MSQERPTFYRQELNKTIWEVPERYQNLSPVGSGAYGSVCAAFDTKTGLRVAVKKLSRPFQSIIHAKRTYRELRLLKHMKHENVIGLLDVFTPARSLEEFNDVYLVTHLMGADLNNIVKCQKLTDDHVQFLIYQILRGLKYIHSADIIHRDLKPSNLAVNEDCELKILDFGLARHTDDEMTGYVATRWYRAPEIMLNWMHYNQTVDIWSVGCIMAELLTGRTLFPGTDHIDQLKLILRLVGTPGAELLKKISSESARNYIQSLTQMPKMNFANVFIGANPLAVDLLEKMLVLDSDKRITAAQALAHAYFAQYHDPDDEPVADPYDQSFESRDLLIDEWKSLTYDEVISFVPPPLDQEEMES
# MPSK1, sequence (O75716 whole entry): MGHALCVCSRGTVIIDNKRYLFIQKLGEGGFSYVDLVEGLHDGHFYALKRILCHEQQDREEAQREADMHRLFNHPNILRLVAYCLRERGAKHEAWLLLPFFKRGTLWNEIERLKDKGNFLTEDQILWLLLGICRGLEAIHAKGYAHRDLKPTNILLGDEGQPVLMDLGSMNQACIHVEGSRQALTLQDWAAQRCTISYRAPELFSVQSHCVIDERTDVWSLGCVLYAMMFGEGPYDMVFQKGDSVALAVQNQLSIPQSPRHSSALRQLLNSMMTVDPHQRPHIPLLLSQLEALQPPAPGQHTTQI
# p38 beta MAPK, sequence (Q15759 whole entry): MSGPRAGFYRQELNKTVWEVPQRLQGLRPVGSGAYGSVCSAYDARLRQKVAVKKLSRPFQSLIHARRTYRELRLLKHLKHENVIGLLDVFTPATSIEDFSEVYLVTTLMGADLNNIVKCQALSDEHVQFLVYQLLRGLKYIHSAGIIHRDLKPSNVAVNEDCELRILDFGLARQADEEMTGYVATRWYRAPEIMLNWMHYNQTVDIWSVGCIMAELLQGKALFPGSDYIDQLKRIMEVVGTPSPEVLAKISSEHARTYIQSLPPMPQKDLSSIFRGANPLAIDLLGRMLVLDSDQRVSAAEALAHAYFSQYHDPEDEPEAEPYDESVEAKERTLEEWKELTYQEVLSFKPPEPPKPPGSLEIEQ
# TTBK1, sequence (Q5TCY1 whole entry): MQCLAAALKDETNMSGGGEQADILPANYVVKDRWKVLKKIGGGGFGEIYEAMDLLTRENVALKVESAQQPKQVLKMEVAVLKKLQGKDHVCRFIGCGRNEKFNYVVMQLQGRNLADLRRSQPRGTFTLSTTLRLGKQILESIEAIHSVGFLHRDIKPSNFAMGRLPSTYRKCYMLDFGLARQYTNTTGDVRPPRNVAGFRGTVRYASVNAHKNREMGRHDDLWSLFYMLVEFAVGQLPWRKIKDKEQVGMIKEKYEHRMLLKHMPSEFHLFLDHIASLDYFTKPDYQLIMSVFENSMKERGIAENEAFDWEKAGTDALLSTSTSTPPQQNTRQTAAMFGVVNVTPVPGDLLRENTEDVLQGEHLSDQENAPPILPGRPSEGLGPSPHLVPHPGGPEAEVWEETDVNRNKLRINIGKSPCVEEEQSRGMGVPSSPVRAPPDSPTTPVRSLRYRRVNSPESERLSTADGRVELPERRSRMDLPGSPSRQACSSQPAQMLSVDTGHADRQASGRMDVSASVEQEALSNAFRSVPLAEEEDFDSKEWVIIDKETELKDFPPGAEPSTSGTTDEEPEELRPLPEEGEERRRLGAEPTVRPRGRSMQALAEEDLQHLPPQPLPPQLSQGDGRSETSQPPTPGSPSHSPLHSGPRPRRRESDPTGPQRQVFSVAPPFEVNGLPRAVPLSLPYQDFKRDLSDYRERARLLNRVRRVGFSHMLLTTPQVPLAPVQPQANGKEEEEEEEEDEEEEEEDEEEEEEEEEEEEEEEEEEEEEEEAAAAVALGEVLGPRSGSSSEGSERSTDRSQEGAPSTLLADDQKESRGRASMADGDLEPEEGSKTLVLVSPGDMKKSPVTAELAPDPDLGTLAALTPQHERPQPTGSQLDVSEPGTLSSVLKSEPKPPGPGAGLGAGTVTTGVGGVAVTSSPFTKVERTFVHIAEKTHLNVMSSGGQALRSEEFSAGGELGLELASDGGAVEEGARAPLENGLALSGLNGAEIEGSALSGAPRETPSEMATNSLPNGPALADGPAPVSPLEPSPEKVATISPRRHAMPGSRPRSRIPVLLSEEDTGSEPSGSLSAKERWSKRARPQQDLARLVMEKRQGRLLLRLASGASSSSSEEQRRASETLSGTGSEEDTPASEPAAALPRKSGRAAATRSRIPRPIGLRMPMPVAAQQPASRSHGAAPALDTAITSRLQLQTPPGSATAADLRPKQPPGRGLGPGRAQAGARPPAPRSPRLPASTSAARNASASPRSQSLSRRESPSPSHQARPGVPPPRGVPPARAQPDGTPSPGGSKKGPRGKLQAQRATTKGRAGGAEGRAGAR
# STK33, sequence (Q9BYT3 whole entry): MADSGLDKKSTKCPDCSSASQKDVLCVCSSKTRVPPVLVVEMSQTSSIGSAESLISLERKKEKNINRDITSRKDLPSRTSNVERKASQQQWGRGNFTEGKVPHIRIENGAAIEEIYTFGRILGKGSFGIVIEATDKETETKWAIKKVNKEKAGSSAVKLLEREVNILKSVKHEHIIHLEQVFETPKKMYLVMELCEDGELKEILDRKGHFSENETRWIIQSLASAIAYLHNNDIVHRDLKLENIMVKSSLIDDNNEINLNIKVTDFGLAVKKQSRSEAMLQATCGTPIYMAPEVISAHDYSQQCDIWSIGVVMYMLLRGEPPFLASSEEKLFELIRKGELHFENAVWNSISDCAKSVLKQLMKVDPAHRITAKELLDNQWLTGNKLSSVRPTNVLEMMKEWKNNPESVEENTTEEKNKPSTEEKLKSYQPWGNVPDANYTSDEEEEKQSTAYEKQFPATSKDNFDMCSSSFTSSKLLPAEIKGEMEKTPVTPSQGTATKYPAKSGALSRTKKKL
smiles,measurement,setting,value
Cc1ccc(F)c(S(=O)(=O)Nc2ccc(-c3nc(OC[C@H]4CN(CCCCCCOCCOCCOCC(=O)N[C@H](C(=O)N5C[C@H](O)C[C@H]5C(=O)NCc5ccc(-c6scnc6C)cc5)C(C)(C)C)CCO4)c4cn[nH]c4n3)cc2)c1 [SGK3-PROTAC1],remaining activity at 1 µM,[1]; 1 µM,105%
same,remaining activity at 1 µM,[2]; 1 µM,125%
same,remaining activity at 1 µM,[3]; 1 µM,94%
same,remaining activity at 1 µM,[4]; 1 µM,64%
same,remaining activity at 1 µM,[5]; 1 µM,108%
same,remaining activity at 1 µM,[6]; 1 µM,88%
same,remaining activity at 1 µM,[7]; 1 µM,107%
same,remaining activity at 1 µM,[8]; 1 µM,108%
same,remaining activity at 1 µM,[9]; 1 µM,127%
same,remaining activity at 1 µM,[10]; 1 µM,92%
same,remaining activity at 1 µM,[11],110%
same,remaining activity at 1 µM,[12]; 1 µM,104%
same,remaining activity at 1 µM,[13]; 1 µM,111%
same,remaining activity at 1 µM,[14]; 1 µM,98%
"COc1ccc(Cl)c(S(=O)(=O)Nc2ccc(-c3nc(OC[C@H]4CNCCO4)c4c(C)n[nH]c4n3)cc2)c1 [290-R, reference compound]",remaining activity at 1 µM,[1],109%
same,remaining activity at 1 µM,[2],111%
same,remaining activity at 1 µM,[3],109%
same,remaining activity at 1 µM,[4],17%
same,remaining activity at 1 µM,[5],34%
same,remaining activity at 1 µM,[6],124%
same,remaining activity at 1 µM,[7],99%
same,remaining activity at 1 µM,[8],92%
same,remaining activity at 1 µM,[9],82%
same,remaining activity at 1 µM,[10],104%
same,remaining activity at 1 µM,[11],74%
same,remaining activity at 1 µM,[12],88%
same,remaining activity at 1 µM,[13],95%
same,remaining activity at 1 µM,[14],112%
Cc1ccc(F)c(S(=O)(=O)Nc2ccc(-c3nc(OC[C@H]4CN(CCCCCCOCCOCCOCC(=O)N[C@H](C(=O)N5C[C@@H](O)C[C@H]5C(=O)NCc5ccc(-c6scnc6C)cc5)C(C)(C)C)CCO4)c4cn[nH]c4n3)cc2)c1 [cisSGK3-PROTAC1],remaining activity at 1 µM,[1]; 1 µM,113%
same,remaining activity at 1 µM,[2]; 1 µM,109%
same,remaining activity at 1 µM,[3]; 1 µM,104%
same,remaining activity at 1 µM,[4]; 1 µM,81%
same,remaining activity at 1 µM,[5]; 1 µM,99%
same,remaining activity at 1 µM,[6]; 1 µM,94%
same,remaining activity at 1 µM,[7]; 1 µM,112%
same,remaining activity at 1 µM,[8]; 1 µM,105%
same,remaining activity at 1 µM,[9]; 1 µM,139%
same,remaining activity at 1 µM,[10]; 1 µM,104%
same,remaining activity at 1 µM,[11],109%
same,remaining activity at 1 µM,[12]; 1 µM,85%
same,remaining activity at 1 µM,[13]; 1 µM,126%
same,remaining activity at 1 µM,[14]; 1 µM,105%
"Cc1ccc(F)c(S(=O)(=O)Nc2ccc(-c3nc(OC[C@H]4CNCCO4)c4cn[nH]c4n3)cc2)c1 [308-R, reference compound]",remaining activity at 1 µM,[1]; 1 µM,91%
same,remaining activity at 1 µM,[2],88%
same,remaining activity at 1 µM,[3],113%
same,remaining activity at 1 µM,[4],51%
same,remaining activity at 1 µM,[5],26%
same,remaining activity at 1 µM,[6],122%
same,remaining activity at 1 µM,[7],116%
same,remaining activity at 1 µM,[8],71%
same,remaining activity at 1 µM,[9],116%
same,remaining activity at 1 µM,[10],64%
same,remaining activity at 1 µM,[11],36%
same,remaining activity at 1 µM,[12],104%
same,remaining activity at 1 µM,[13],109%
same,remaining activity at 1 µM,[14],128%
